Measured values taken from US8389513B2, “2-amino-5,5-difluoro-5,6-dihydro-4H-[1,3]oxazin-4-yl)-phenyl]-amides” (Hoffmann-La Roche Inc., priority 2009, dated 2013).

Tests used:
CYP2C9 = target: T1, CYP2C9 (Homo sapiens, UniProt P11712); test: CYP inhibition assay, CYP2C9; assay type: in vitro ADME; conditions: human liver microsomes, diclofenac; read-out: CYP IC50 2C9
T1 construct: 0.2 mg/ml pooled human liver microsomes; from tissue; host or cells: pooled human liver microsomes
Description: (§1) Inhibition of cytochromes P450 (CYPs) 2C9, 2D6 and 3A4 was assessed using human liver microsomes and CYP-selective substrate metabolism reactions. 50 μl incubations were made up containing (finally) 0.2 mg/ml pooled human liver microsomes, 5 μM substrate (diclofenac for CYP2C9 [4′ hydroxylase], dextromethorphan for CYP2D6 [O-demethylase] or midazolam for CYP3A4 [1′ hydroxylase]), 0.25 μL DMSO containing test inhibitor and NADPH regenerating system. […] Incubations were prewarmed to 37° C. for 10 minutes before initiation by addition of NADPH regenerating system. Incubations were quenched after 5 minutes (20 minutes for dextromethorphan) by addition of 50 μl cold acetonitrile containing 20 ng/ml 4-OH-diclofenac-13C6, 20 ng/mL dextrorphan-D3 and 20 ng/mL 1-OH-midazolam-D4. Quenched incubates were stored at −20° C. for at least 1 hour before centrifugation (20,000×g, 20 minutes). Supernatants were removed and diluted 1:1 with water prior to analysis using a RapidFire sample injector system and API4000 mass spectrometer. Peak areas for substrate, metabolite and stable-labelled metabolite standard were determined using MS/MS. The peak area ratios between the metabolite generated by the enzymatic reaction and the internal standard were used in subsequent calculations. The percentage of (DMSO) control activity was calculated for each incubate and IC50 values estimated by non-linear regression. Sulfaphenazole, quinidine or ketoconazole were tested in each CYP2C9, CYP2D6 or CYP3A4 inhibition experiment, respectively, to ensure assay sensitivity and reproducibility.

[1] = target: T2, cathepsin D (from human liver) (Homo sapiens, UniProt P07339); test: Cathepsin D fluorescent substrate kinetic assay; assay type: biochemical; conditions: pH 5.5
T2 construct: cathepsin D (from human liver, Calbiochem); purchased Calbiochem; host or cells: human liver
Excerpt: (§2) Cathepsin D and Cathepsin E Fluorescent Substrate Kinetic Assays
The MR121 fluorescence assays described below are based on the fact that MR121 forms a non-fluorescent ground state complex with tryptophan. In solution this formation occurs at millimolar concentrations of tryptophan. The mechanism can be used to design a generic biochemical assay for proteases. A substrate peptide is labeled at the N-terminus with tryptophan and at the C-terminus with the fluorophore MR121 (for cathepsin D the 10 amino acid peptide […]-MR121 was used; for cathepsin E, MR121-[…] was used). In absence of protease activity, the substrates remain intact and the MR121 fluorescence is reduced by the high local Trp-concentration. If the substrates are cleaved by the enzymes the MR121 fluorescence is recovered.
The fluorescent substrate cathepsin D and cathepsin E kinetic assays were performed at room temperature in 384-well microtiter plates (black with clear flat bottom, non binding surface plates from Corning) in a final volume of 51 μl. The test compounds were serially diluted in DMSO (15 concentrations, 1/3 dilution steps) and 1 μl of diluted compounds were mixed for 10 min with 40 μl of cathepsin D (from human liver, Calbiochem) diluted in assay buffer (100 mM sodium acetate, 0.05% BSA, pH 5.5; final concentration: 200 nM) or with 40 μl of recombinant human cathepsin E (R&D Systems) diluted in assay buffer (100 mM sodium acetate, 0.05% BSA, pH 4.5; final concentration: 0.01 nM). After addition of 10 μl of the cathepsin D substrate […]-MR121 diluted in cathepsin D assay buffer (final concentration: 300 nM) or 10 µl of the cathepsin E substrate MR121-[…] diluted in cathepsin E assay buffer (final concentration: 300 nM), the plates were strongly shaken for 2 minutes. The enzymatic reaction was followed in a plate: vision reader (Perkin Elmer) (excitation wavelength: 630 nm; emission: 695 nm) for at least 30 minutes in a kinetic measurement detecting an increase of MR121 fluorescence during the reaction time. The slope in the linear range of the kinetic was calculated and the IC50 of the test compounds were determined using a four parameter equation for curve fitting.

CYP2D6 = target: T3, CYP2D6 (Homo sapiens, UniProt P10635); test: CYP inhibition assay, CYP2D6; assay type: in vitro ADME; conditions: human liver microsomes, dextromethorphan; read-out: CYP IC50 2D6
T3 construct: 0.2 mg/ml pooled human liver microsomes; from tissue; host or cells: pooled human liver microsomes
Description: as §1

[2] = target: T4, recombinant human cathepsin E (Homo sapiens, UniProt P14091); test: Cathepsin E fluorescent substrate kinetic assay; assay type: biochemical; conditions: pH 4.5
T4 construct: purchased R&D Systems
T4 sequence (P14091 54-396): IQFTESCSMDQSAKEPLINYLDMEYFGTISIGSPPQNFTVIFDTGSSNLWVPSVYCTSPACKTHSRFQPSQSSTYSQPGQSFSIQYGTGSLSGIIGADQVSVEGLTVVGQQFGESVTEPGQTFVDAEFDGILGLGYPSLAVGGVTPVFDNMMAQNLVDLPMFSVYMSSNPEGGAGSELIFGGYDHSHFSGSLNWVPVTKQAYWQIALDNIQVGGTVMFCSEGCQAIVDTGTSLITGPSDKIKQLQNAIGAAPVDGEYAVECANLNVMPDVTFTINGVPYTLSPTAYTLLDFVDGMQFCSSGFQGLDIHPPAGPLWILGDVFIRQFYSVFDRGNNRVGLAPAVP
Excerpt: as §2
The MR121 fluorescence assays described below are based on the fact that MR121 forms a non-fluorescent ground state complex with tryptophan. In solution this formation occurs at millimolar concentrations of tryptophan. The mechanism can be used to design a generic biochemical assay for proteases. […] In absence of protease activity, the substrates remain intact and the MR121 fluorescence is reduced by the high local Trp-concentration. If the substrates are cleaved by the enzymes the MR121 fluorescence is recovered.
The fluorescent substrate cathepsin D and cathepsin E kinetic assays were performed at room temperature in 384-well microtiter plates (black with clear flat bottom, non binding surface plates from Corning) in a final volume of 51 μl. The test compounds were serially diluted in DMSO (15 concentrations, 1/3 dilution steps) and 1 μl of diluted compounds were mixed for 10 min with 40 μl of cathepsin D (from human liver, Calbiochem) diluted in assay buffer (100 mM sodium acetate, 0.05% BSA, pH 5.5; final concentration: 200 nM) or with 40 μl of recombinant human cathepsin E (R&D Systems) diluted in assay buffer (100 mM sodium acetate, 0.05% BSA, pH 4.5; final concentration: 0.01 nM). […] The enzymatic reaction was followed in a plate: vision reader (Perkin Elmer) (excitation wavelength: 630 nm; emission: 695 nm) for at least 30 minutes in a kinetic measurement detecting an increase of MR121 fluorescence during the reaction time. The slope in the linear range of the kinetic was calculated and the IC50 of the test compounds were determined using a four parameter equation for curve fitting.

T1 sequence (P11712 whole entry): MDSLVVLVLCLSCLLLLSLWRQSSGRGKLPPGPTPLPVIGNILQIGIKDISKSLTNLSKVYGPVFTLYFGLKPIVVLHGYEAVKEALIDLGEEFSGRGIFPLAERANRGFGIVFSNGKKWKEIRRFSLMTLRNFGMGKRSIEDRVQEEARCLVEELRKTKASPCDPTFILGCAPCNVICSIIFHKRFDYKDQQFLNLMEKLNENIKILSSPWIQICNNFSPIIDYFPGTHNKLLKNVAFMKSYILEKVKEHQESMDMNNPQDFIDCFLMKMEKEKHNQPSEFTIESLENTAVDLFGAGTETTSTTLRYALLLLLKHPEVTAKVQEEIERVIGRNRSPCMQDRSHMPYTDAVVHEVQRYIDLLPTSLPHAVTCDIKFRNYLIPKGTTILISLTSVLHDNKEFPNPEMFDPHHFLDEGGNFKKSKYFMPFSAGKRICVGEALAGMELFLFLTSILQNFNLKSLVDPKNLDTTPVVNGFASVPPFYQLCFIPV
T2 sequence (P07339 65-412): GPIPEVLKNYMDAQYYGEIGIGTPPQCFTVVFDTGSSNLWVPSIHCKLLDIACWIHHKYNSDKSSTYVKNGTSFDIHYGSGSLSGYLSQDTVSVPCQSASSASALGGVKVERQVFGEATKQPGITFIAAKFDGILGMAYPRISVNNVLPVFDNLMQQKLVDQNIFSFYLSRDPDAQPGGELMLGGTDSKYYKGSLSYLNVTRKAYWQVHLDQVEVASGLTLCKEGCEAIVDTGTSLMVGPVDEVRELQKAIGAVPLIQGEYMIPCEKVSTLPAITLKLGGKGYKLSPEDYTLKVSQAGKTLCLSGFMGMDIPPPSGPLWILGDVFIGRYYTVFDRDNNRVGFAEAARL
T3 sequence (P10635 whole entry): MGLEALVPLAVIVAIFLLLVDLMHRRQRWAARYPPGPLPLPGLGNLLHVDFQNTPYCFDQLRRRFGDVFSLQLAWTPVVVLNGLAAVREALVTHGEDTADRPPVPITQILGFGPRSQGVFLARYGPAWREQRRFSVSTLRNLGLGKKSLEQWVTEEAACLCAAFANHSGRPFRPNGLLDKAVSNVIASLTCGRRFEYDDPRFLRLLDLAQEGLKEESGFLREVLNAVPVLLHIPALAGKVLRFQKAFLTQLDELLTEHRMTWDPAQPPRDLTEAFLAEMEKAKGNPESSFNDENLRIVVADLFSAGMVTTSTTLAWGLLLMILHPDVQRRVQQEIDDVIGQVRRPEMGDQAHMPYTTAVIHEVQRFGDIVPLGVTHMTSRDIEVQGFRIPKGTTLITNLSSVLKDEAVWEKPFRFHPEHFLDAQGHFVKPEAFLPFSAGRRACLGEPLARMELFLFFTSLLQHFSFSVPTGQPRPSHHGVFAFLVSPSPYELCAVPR

Row | IC50 (CYP2C9) [µM] | IC50 [1] [µM] | IC50 (CYP2D6) [µM] | IC50 [2] [µM] | SMILES
1 | > 10 | > 170 | > 10 | – | C[C@]1(c2cc(NC(=O)c3ncc(Cl)cc3Cl)ccc2F)N=C(N)OCC1(F)F [Example 8, 3,5-Dichloro-pyridine-2-carboxylic acid [3-((R)-2-amino-5,5-difluoro-4-methyl-5,6-dihydro-4H-[1,3]oxazin-4-yl)-4-fluoro-phenyl]-amide]
2 | – | > 200 | 1 to 10 | > 200 | C[C@]1(c2cc(NC(=O)c3ncc(C(F)(F)F)cc3Cl)ccc2F)N=C(N)OCC1(F)F [Example 5, 3-Chloro-5-trifluoromethyl-pyridine-2-carboxylic acid [3-((R)-2-amino-5,5-difluoro-4-methyl-5,6-dihydro-4H-[1,3]oxazin-4-yl)-4-fluoro-phenyl]-amide]
3 | > 10 | > 200 | > 10 | > 200 | CC1(C)OC(N)=N[C@](C)(c2cc(NC(=O)c3ccc(C#N)cn3)ccc2F)C1(F)F [Example 21, 5-Cyano-pyridine-2-carboxylic acid [3-((R)-2-amino-5,5-difluoro-4,6,6-trimethyl-5,6-dihydro-4H-[1,3]oxazin-4-yl)-4-fluoro-phenyl]-amide]
4 | 1 to 10 | > 200 | 1 to 10 | > 200 | CC1(C)OC(N)=N[C@](C)(c2cc(NC(=O)c3ncc(C(F)(F)F)cc3Cl)ccc2F)C1(F)F [Example 20, 3-Chloro-5-trifluoromethyl-pyridine-2-carboxylic acid [3-((R)-2-amino-5,5-difluoro-4,6,6-trimethyl-5,6-dihydro-4H-[1,3]oxazin-4-yl)-4-fluoro-phenyl]-amide]
5 | > 10 | > 200 | > 10 | > 200 | C[C@]1(c2cc(NC(=O)c3ncc(C#N)cc3Cl)ccc2F)N=C(N)OCC1(F)F [Example 39, 3-Chloro-5-cyano-pyridine-2-carboxylic acid [3-((R)-2-amino-5,5-difluoro-4-methyl-5,6-dihydro-4H-[1,3]oxazin-4-yl)-4-fluoro-phenyl]-amide]
6 | > 10 | > 200 | 1 to 10 | 109 | C[C@]1(c2cc(NC(=O)c3ccc(Cl)cn3)ccc2F)N=C(N)OCC1(F)F [Example 1, 5-Chloro-pyridine-2-carboxylic acid [3-((R)-2-amino-5,5-difluoro-4-methyl-5,6-dihydro-4H-[1,3]oxazin-4-yl)-4-fluoro-phenyl]-amide]
7 | > 10 | > 200 | 1 to 10 | > 200 | CC1(C)OC(N)=N[C@](C)(c2cc(NC(=O)c3ncc(C#N)cc3Cl)ccc2F)C1(F)F [Example 22, 3-Chloro-5-cyano-pyridine-2-carboxylic acid [3-((R)-2-amino-5,5-difluoro-4,6,6-trimethyl-5,6-dihydro-4H-[1,3]oxazin-4-yl)-4-fluoro-phenyl]-amide]
